From patent US7994360B2, “Benzofuran compounds” (XTL Biopharmaceuticals Ltd., priority 2005, dated 2011) come the findings set out here.

Each structure is given as a SMILES string.

One data set concerns Huh-Luc-Neo cells. Nature of the data set: CellTiter-Glo Cell Viability Assay. Type of data set: cell-based, human. The settings on record: inhibition of cell viability; for Toxicity % Inhibition at 50uM (2 doses): conditions identical to Replicon RNA assay; for Toxicity % Inhibition at 100 uM (1 dose): conditions identical to Luciferase assay (48 h). In general terms: ATP-based viability assays read luminescence as a measure of living cells.

Data set [1] deals with HCV Replicon (HCV RNA) in Huh-Luc-Neo cells. In words: HCV Replicon RNA Assay (Taqman quantitative PCR of HCV RNA). The format is cell-based. The settings on record: Hepatitis C virus, compound added day 0 and day 1, HCV RNA by quantitative PCR, no unit printed in table (text gives hit threshold in μM). The source says: Day 2, RNA Isolation and cDNA Synthesis: The cells are washed with 1× Phosphate Buffered Saline (PBS) once.
On the technique in general: A replicon is a self-replicating genome or part of one, used to study replication in cells.

The test system of data set [2] is HCV Replicon (HCV IRES driven luciferase reporter) in Huh-Luc-Neo cells. In words: HCV Replicon Luciferase Assay. The settings on record: Hepatitis C virus, 48 h, read-out: Luciferase IC50.

The IC50 is the concentration that gives 50% inhibition. For the compound `CC(=O)c1ccc(-c2c(-c3ccccc3C(F)(F)F)oc3c(C#Cc4ccccc4Cl)cc(CO)cc23)cc1` [VQ–36167], in the data set with Huh-Luc-Neo cells, the “Toxicity % Inhibition at 50uM (2 doses)” value is on record as 20.2% and the “Toxicity % Inhibition at 100 uM (1 dose)” value came out at 33.2%. The same compound gave an IC50 in data set [1] of 1.61 µM. The IC50 in data set [2] was 12.2 µM.
Take `CC(=O)c1ccc(-c2c(-c3ccccc3Cl)oc3c(C#Cc4ccccc4Cl)cc(CO)cc23)cc1` [VQ–36165]: in the data set on Huh-Luc-Neo cells, the “Toxicity % Inhibition at 50uM (2 doses)” value was determined as 5.7% and the “Toxicity % Inhibition at 100 uM (1 dose)” value is 10.5%. The compound further yielded an IC50 in data set [1] of 1.31 µM. In addition, in data set [2], the IC50 was 5.12 µM.
